Counter-ions that a name gives are not always drawn.
How the values were obtained:
Sodium Channel ENaC = target: T1, Sodium Channel ENaC (Homo sapiens, UniProt P37088+P51168+P51170); test: Sodium Channel ENaC Ussing Chamber Test (short circuit current); format: cell-based; settings: human primary bronchial epithelial cells at air-liquid interface; inhibition of short circuit current; compounds added to the apical side
T1 construct: Human primary bronchial epithelial cells differentiated at air-liquid interface (ALI); host or cells: Human primary bronchial epithelial cells differentiated at air-liquid interface
T1 sequence (P37088 1-669): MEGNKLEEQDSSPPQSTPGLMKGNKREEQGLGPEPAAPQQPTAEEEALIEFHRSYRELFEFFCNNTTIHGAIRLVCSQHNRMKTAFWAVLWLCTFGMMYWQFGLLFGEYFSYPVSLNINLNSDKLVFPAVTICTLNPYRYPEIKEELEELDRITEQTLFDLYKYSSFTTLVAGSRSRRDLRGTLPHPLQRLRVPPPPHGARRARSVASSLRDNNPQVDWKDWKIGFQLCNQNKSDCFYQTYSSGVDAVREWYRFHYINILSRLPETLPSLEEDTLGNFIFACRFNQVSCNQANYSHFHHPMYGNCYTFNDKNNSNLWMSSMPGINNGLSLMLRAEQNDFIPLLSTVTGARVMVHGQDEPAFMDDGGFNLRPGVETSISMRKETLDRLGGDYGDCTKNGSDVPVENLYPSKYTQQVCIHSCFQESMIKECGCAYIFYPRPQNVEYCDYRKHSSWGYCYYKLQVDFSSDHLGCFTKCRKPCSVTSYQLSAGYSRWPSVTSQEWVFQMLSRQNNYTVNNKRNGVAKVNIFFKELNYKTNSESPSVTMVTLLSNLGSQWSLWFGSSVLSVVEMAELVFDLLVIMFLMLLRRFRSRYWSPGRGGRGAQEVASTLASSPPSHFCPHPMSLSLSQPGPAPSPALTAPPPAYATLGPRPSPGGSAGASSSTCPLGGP
T1 sequence (P51168 1-640): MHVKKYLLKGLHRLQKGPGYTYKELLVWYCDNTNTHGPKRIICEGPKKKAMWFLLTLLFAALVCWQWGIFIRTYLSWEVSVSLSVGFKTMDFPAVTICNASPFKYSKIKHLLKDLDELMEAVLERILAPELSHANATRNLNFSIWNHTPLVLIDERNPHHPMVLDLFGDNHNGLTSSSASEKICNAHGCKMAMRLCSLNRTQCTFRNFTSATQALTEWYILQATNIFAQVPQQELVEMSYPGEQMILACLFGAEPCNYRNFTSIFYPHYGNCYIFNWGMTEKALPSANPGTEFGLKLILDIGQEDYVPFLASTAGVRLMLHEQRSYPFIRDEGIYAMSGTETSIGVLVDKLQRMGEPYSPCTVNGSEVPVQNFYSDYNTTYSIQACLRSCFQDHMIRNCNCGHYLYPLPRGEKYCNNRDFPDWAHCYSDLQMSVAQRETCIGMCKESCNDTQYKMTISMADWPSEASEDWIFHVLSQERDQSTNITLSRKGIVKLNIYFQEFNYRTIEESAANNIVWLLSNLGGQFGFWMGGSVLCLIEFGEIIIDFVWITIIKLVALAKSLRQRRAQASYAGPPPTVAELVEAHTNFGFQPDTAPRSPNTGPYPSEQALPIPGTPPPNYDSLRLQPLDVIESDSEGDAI
T1 sequence (P51170 1-649): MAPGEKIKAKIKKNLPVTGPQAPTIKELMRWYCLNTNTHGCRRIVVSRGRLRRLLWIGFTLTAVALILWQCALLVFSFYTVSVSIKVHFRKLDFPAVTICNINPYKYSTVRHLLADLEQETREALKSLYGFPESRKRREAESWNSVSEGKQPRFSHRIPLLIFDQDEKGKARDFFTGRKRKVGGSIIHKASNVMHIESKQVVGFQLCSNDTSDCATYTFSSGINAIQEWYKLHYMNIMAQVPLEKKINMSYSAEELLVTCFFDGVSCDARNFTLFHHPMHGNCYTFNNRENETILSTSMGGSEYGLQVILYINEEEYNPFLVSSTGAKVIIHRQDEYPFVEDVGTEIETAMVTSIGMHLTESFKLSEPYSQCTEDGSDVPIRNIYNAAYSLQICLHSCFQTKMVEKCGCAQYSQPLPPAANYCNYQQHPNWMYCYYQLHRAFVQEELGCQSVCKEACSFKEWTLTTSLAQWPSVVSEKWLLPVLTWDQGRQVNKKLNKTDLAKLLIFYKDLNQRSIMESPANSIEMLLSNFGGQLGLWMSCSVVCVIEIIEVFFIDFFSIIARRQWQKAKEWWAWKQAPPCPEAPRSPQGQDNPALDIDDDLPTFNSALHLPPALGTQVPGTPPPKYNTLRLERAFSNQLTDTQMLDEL
Procedure: Sodium Channel ENaC Ussing Chamber Test
Human primary bronchial epithelial cells differentiated at air-liquid interface (ALI) on snapwell permeable supports (MatTek Corporation, MA, USA, cat no AIR-100-SNP) were maintained at ALI culture in a humidified incubator at 37° C. and 5% CO2. Basolateral medium (MatTek Corporation, MA, USA cat no AIR-100-MM-ASY) was changed every second day. Mucus or liquid formed on the apical side was gently aspirated every second day to maintain viability and performance of the cells.
The transepithelial voltage between the luminal/apical and basolateral membrane were measured in the ussing chamber consisted of vertical, in-house manufactured ussing chambers, DVC-1000 V/C clamps with preamplifiers (World Precision Instruments), electrode kits (EK1, World Precision Instruments), Power Lab with Chart5 software, water bath with external circulation and carbogen gas distribution and regulation system. Electrodes used in the set up were casted manually using 4% agarose in 0.9% sterile NaCl according to the manufacturer's recommendation.
The ussing chambers were assembled with an empty snapwell membrane (Costar 3407) and electrodes contained in Kreb's buffer (SIGMA-ALDRICH cat no K3753) for one hour at 37° C. in presence of 95% oxygen and 5% carbon dioxide. After this equilibration step the system was compensated for fluid resistance and input offset.
The equilibrated chambers were reassembled with a snapwell containing ALI cells and after 20 minutes stabilisation cumulative doses of the compounds were added to the apical side of the membrane. After the final dose 10 μM Benzamil was added to reach maximum.
All test compounds, including the reference compound, were diluted from 10 mM stocks in 100% DMSO and added to opaque 96-well plates (Greiner, Cat No. 651201). Dilution series of 12 doses were prepared in DMSO, starting with 3 μM followed by 10 times dilution steps.
Chart5 for Windows software was used to measure the value of the short circuit current after each compound addition. The data was transferred into Excel and analysed using IDBS XLfit® 5.2 (ID Business Solutions Ltd). The molar concentration of test or reference compound producing 50% inhibition (curve IC50) was derived by fitting data to a 4-parameter logistic function of the form: y=(A+((B−A)/(1+(((10^C)/x)^D))))
A The bottom plateau of the curve, i.e. the final minimum y value
B The top of the plateau of the curve i.e. the final maximum y value
C The log10 x value at a y value of 50%.

[1] = test system: ENaC β-subunit overexpressing transgenic mice; settings: administration to the lungs of the mice for 14 days after birth; cited from earlier work
normal subjects = settings: treatment of normal subjects; cited from earlier work

| SMILES | IC50 (Sodium Channel ENaC) [nM] | mortality [1] | ASL volume (normal subjects) | MCC rates (normal subjects) |
| --- | --- | --- | --- | --- |
| CCCCCCN(CCNC(=O)c1ccc(CCNC[C@H](CNC(=O)c2nc(Cl)c(N)nc2N)Cc2ccccc2C)cc1)C[C@H](O)[C@@H](O)[C@H](O)CO [Example 13, 3,5-diamino-6-chloro-N—((R)-3-((4-((2-(hexyl((2S,3R,4R)-2,3,4,5-tetrahydroxypentyl)amino)ethyl)carbamoyl)phenethyl)amino)-2-(2-methylbenzyl)propyl)pyrazine-2-carboxamide Dihydrochloride] | 0.0794 | – | – | – |
| CCCCCCN(CCNC(=O)c1ccc(CNC[C@@H](CNC(=O)c2nc(Cl)c(N)nc2N)Cc2ccccc2C)cc1)C[C@H](O)[C@@H](O)[C@H](O)CO [Example 14, 3,5-diamino-6-chloro-N—((S)-3-((4-((2-(hexyl((2S,3R,4R)-2,3,4,5-tetrahydroxypentyl)amino)ethyl)carbamoyl)benzyl)amino)-2-(2-methylbenzyl)propyl)pyrazine-2-carboxamide Acetic Acid] | 31.6 | – | – | – |
| N=C(N)NC(=O)c1nc(Cl)c(N)nc1N [amiloride] | – | significantly reduced | increases | increases |

— patent publication US10336725B2, “Chemical compounds” (AstraZeneca AB, priority 2014, dated 2019)
